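In this assay, cells in 96-well plates receive the compound at five concentrations for 48 hours. Endpoints are linearly interpolated between the surrounding concentrations. Definition used: TGI = concentration required for complete inhibition of growth.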

Test systems include CCRF-CEM leukemia; EKVX NSCLC; HOP-92 NSCLC; M19-MEL melanoma; MALME-3M melanoma; NCI-H522 lung; OVCAR-3 ovarian; OVCAR-4 ovarian; OVCAR-8 ovarian; RXF 393 renal; SK-MEL-2 melanoma; SK-MEL-5 melanoma; SN12C renal; SNB-75 CNS; SR leukemia; TK-10 renal; U251 CNS; UACC-257 melanoma; KM12 colon; SK-MEL-28 melanoma.
Common to all, as to experiment: inhibition of tumour cell growth, NCI panel, 48 h

For the molecule `CN1Cc2ccccc2C2(COc3ccccc3C2=O)C1` (stereo not given), the TGI with CCRF-CEM leukemia is above 100 µM; in the assay on EKVX NSCLC, above 100 µM; in the assay with HOP-92 NSCLC it was 93.6 µM; in the assay on M19-MEL melanoma, above 100 µM; with MALME-3M melanoma, above 100 µM; in the assay on NCI-H522 lung, above 100 µM. For the same molecule, the TGI with OVCAR-3 ovarian, in the assay with OVCAR-4 ovarian, with OVCAR-8 ovarian, in the assay with RXF 393 renal, with SK-MEL-2 melanoma and with SK-MEL-5 melanoma was above 100 µM each time. The TGI with SN12C renal is above 100 µM; in the assay on SNB-75 CNS, above 100 µM; with SR leukemia, 87.8 µM; in the assay on TK-10 renal, above 100 µM; in the assay on U251 CNS, above 100 µM; in the assay on UACC-257 melanoma, above 100 µM.
Regarding `CC(=O)c1c(-c2ccco2)c(C#N)c(=S)n(C2OC(CO)C(O)C(O)C2O)c1C` (stereo not given), the TGI in the assay with CCRF-CEM leukemia, in the assay on EKVX NSCLC, in the assay on KM12 colon, in the assay with MALME-3M melanoma, with OVCAR-3 ovarian and in the assay with OVCAR-4 ovarian was above 100 µM throughout. Further, the TGI with OVCAR-8 ovarian, in the assay with RXF 393 renal, in the assay with SK-MEL-28 melanoma, in the assay on SK-MEL-5 melanoma, in the assay on SN12C renal and in the assay with SNB-75 CNS was above 100 µM in each case. In addition, the TGI in the assay on SR leukemia, in the assay with TK-10 renal, in the assay on U251 CNS and with UACC-257 melanoma was above 100 µM each time.
Turning to `CN1COCN=C1NC#N`, the TGI in the assay with CCRF-CEM leukemia, in the assay with EKVX NSCLC, in the assay with KM12 colon, with M19-MEL melanoma, in the assay on MALME-3M melanoma and in the assay with NCI-H522 lung was above 100 µM throughout. In addition, the TGI in the assay on OVCAR-3 ovarian, with OVCAR-4 ovarian, with SK-MEL-2 melanoma, in the assay on SK-MEL-28 melanoma, in the assay with SN12C renal and in the assay on SNB-75 CNS was above 100 µM each time. The molecule further registered a TGI in the assay with UACC-257 melanoma above 100 µM.
In the case of `Cc1cc(C)c(S(=O)(=O)N(CCCCCN)OCCCN)c(C)c1`, the TGI came out at 45.6 µM with CCRF-CEM leukemia; 30.6 µM in the assay on EKVX NSCLC; 31 µM in the assay on HOP-92 NSCLC; 34.8 µM in the assay with KM12 colon; 40.2 µM with MALME-3M melanoma; 36.2 µM in the assay on OVCAR-3 ovarian. Moreover, the TGI with OVCAR-4 ovarian amounted to 37.8 µM; with OVCAR-8 ovarian it was 34.1 µM; with RXF 393 renal, 24.8 µM; in the assay on SK-MEL-2 melanoma it was 35.1 µM; in the assay on SK-MEL-28 melanoma it was 32.2 µM; in the assay on SK-MEL-5 melanoma it was 35.5 µM. Moreover, the TGI in the assay on SN12C renal came out at 33.3 µM; in the assay on SNB-75 CNS, 30.9 µM; with SR leukemia it was 43.9 µM; in the assay with TK-10 renal it was 30.8 µM; in the assay with U251 CNS it was 35.4 µM; in the assay with UACC-257 melanoma, 32 µM.
As to `COC1CCC(CO)OO1` (stereo not given), the TGI in the assay on CCRF-CEM leukemia was above 100 µM; with HOP-92 NSCLC it was above 100 µM; in the assay on KM12 colon, above 100 µM; in the assay on M19-MEL melanoma, above 100 µM; in the assay on MALME-3M melanoma it was above 100 µM; in the assay on NCI-H522 lung, 27.4 µM. Moreover, the TGI in the assay on OVCAR-3 ovarian is 80.5 µM; in the assay with OVCAR-4 ovarian it was above 100 µM; in the assay with RXF 393 renal, above 100 µM; in the assay with SK-MEL-2 melanoma, above 100 µM; in the assay on SK-MEL-28 melanoma it was above 100 µM; with SNB-75 CNS, above 100 µM. In addition, the TGI in the assay on SR leukemia, in the assay with U251 CNS and in the assay on UACC-257 melanoma was above 100 µM in each case.
